Test: Magnitude of colour change (light absorbance) dry vs damp for colour-formers dip-coated on MDI and TDI HPU foam (Example 25)
Details: for Enhancement: light absorbance damp versus dry
Procedure: A range of colour-formers were dip-coated onto MDI- and TDI-based HPU foams using the following method:
A solution of colour-former in acetone (5 mg/ml) was prepared. A 20×20×5 mm square sample of a TDI-based or MDI-based HPU foam was fully immersed in the colour-former solution (20 ml), taking care to avoid air-locking within the foam. The sample was immediately removed from the solution and excess solution removed with light squeezing followed by hand compression between layers of absorbent tissue.
The sample was oven dried at 70° C. for 10 minutes, resulting in an off-white sample in all cases.
The light absorbance of the resulting samples was recorded in the dry state at the wavelength of maximum light absorbance (when moistened). Each sample was individually fully wet out in deionised water and dried to dampness between absorbent tissue prior to immediate determination of light absorbance at the aforementioned wavelength.

Row | Enhancement (MDI HPU foam) | Enhancement (TDI HPU foam) | suitability to function as colour-forming indicator (on MDI or TDI HPU foams at the loading concentrations employed, damp absorbance versus 0.1 absorbance unit visibility limit) | Structure (SMILES)
1 | 5.7 | 8.1 | – | CCCCN(CCCC)c1ccc2c(c1)Oc1cc(C)c(Nc3ccccc3)cc1C21OC(=O)c2ccccc21 (stereo not drawn) [WinCon-2, 6-dibutylamino-3-methyl-2-phenylaminofluoran]
2 | 6.3 | 10.3 | – | CCN(CCC(C)C)c1ccc2c(c1)Oc1cc(C)c(Nc3ccccc3)cc1C21OC(=O)c2ccccc21 (stereo not drawn) [WinCon-205, 6-(N-ethyl, N-isopentylamino)-3-methyl-2-phenylaminofluoran]
3 | 6.8 | 9.3 | – | CCN(CC)c1ccc2c(c1)Oc1cc(C)c(Nc3ccc(C)cc3C)cc1C21OC(=O)c2ccccc21 (stereo not drawn) [WinCon-15, 2-(2,4-dimethylphenylamino)-3-methyl-6-diethylaminofluoran]

Continued, compound first:

Row | Structure (SMILES) | Enhancement (MDI HPU foam) | Enhancement (TDI HPU foam) | suitability to function as colour-forming indicator (on MDI or TDI HPU foams at the loading concentrations employed, damp absorbance versus 0.1 absorbance unit visibility limit)
4 | CCN(CC)c1ccc(-c2nc(Oc3ccc(C(C)(C)c4ccc(Oc5nc(-c6ccc(N(CC)CC)cc6)nc6ccccc56)cc4)cc3)c3ccccc3n2)cc1 [Pergascript Yellow I 3R, 4,4′-[(1-methylethylidene)bis(4,1-phenyleneoxy-4,2-quinazolinediyl)]bis[N,N-diethyl]benzamine] | 1.1 | 0.7 | not well-suited
5 | CCN(CC)c1ccc2c(c1)Oc1cc(C)c(Nc3ccccc3)cc1C21OC(=O)c2ccccc21 (stereo not drawn) [WinCon-1, 6-diethylamino-3-methyl-2-phenylaminofluoran] | 6.2 | 6.8 | –
6 | CCN(CC)c1ccc2c(c1)Oc1ccc(N(Cc3ccccc3)Cc3ccccc3)cc1C21OC(=O)c2ccccc21 (stereo not drawn) [WinCon Green, 2-dibenzylamino-6-diethylaminofluoran] | 5.7 | 7.0 | –
7 | CN(C)c1ccc(C2(c3ccc(N(C)C)cc3)OC(=O)c3cc(N(C)C)ccc32)cc1 [Crystal Violet Lactone, crystal violet lactone] | 13.4 | 14.8 | –
